Experiments:
[1] = tested on: human NSCLC HCC827-GR-T790M xenograft; assay type: in vivo; details: female NCr nude mice, 100 mg/kg each agent orally daily, day 14
Method: Background: The human NSCLC HCC827-GR-T790M is a EGFR del 19 mutant and c-Met amplified lung xenograft model which exogenous expression of the EGFR T790M resistant mutation.
Method: Female NCr nude mice (7 weeks old) where subcutaneously injected with human HCC827-GR-T790M tumor cells and were divided into treatment groups (10 animals per group) after the tumors were established. […] Median tumor volume (TV) change in % were calculated at day 14, where the vehicle group was terminated and statistical analysis done with two way-RM ANOVA.

[2] = tested on: human DFCI081 NSCLC xenograft; assay: human DFCI081 patient derived NSCLC xenograft (PDX) model; assay type: in vivo; details: for tumor response class / median tumor volume (TV) change: female NCr nude mice; for tumor response class: 100 mg/kg each agent orally daily up to 18 days; for median tumor volume (TV) change: s.c. DFCI081 tumors, 100 mg/kg orally daily up to 18 days
Method: Method: Female NCr nude mice (7 weeks old) where subcutaneously injected with human DFCI081 tumor cells and were divided into treatment groups (10 animals per group) after the tumors were established. […] Median tumor volume (TV) change in % were calculated and statistical analysis done with two way-RM ANOVA.

[3] = tested on: human DFCI081 NSCLC xenograft; details: background; due to the activated c-Met pathway; cited from earlier work

Compound | tumor response class [1] | median tumor volume change ([1]; s.c. HCC827-GR-T790M tumors) | tumor response class [2] | median tumor volume (TV) change [2] | resistance of the model to EGFR inhibitor [3] | day at which complete tumor regression/response was observed in all mice ([2]; 100 mg/kg each agent orally daily)
C=CC(=O)Nc1cccc(Nc2nc(Nc3ccc(N4CCN(C(C)=O)CC4)cc3OC)ncc2C(F)(F)F)c1 [N-[3-[[2-[4-(4-acetylpiperazin-1-yl)-2-methoxy-anilino]-5-(trifluoromethyl)-pyrimidin-4-yl]amino]phenyl]prop-2-enamide] | tumors progressed | 81% | tumor progressed | 700% |  | 
C#Cc1cccc(Nc2ncnc3cc(OCCOC)c(OCCOC)cc23)c1 [erlotinib] |  |  |  |  | resistant | 
CN1CCC(COc2cnc(-c3cccc(Cn4nc(-c5cccc(C#N)c5)ccc4=O)c3)nc2)CC1.Cl.O [3-(1-{3-[5-(1-Methyl-piperidin-4-ylmethoxy)-pyrimidin-2-yl]-benzyl}-6-oxo-1,6-dihydro-pyridazin-3-yl)-benzonitrile hydrochloride hydrate] |  |  | tumor regression | −100% |  | 15 days

Source: US10532052B2, “Combination of a 6-oxo-1,6-dihydro-pyridazine derivative having anti-cancer activity with an EGFR inhibitor” (Merck Patent GmbH, priority 2014, dated 2020)
